Measured values: patent US12239662B2, “Compositions for inhibiting anaerobic microorganisms” (LPOXY THERAPEUTICS, INC, priority 2020, dated 2025)
Where two headings read alike, the source gives them in different places.

Columns and labels:
[1] = up to the maximum bolus tested, 200 microliters every 6 hours (8 mL/kg per bolus; 32 mL/kg/day)
Experimental: In a separate experiment using the above conditions the tolerance of bolus injection of 100% oxygen gas was tested.

[2] = test system: Clostridioides difficile ATCC 43255; details: for onset of action: compared between treatment groups; for cure rate: no recurrence over 14 days after inoculation; for clinical severity and recovery: total clinical score and daily weights, compared to infection control group; for survival: treatment study day 0 to day 4, followed 14 days after inoculation, 10 mice per group
Text: Thirty C57BL/6 female mice (18-22 g) fitted with duodenal catheters externalized and fitted with access button ports were purchased from Charles River Laboratories and singly housed in a temperature and humidity-controlled room with a 12-hour light cycle. The mice were divided into 3 groups of 10. All procedures used in these experimental protocols were in compliance with the Animal Welfare Act, the Guide for the Care and Use of Laboratory Animals, and the Office of Laboratory Animal Welfare.
The mice were pretreated with an antibiotic cocktail in their drinking water for 8 consecutive days. This antibiotic cocktail was composed of 1% glucose, 500 mcg/mL kanamycin, 44 mcg/mL gentamicin, 1062.5 units per milliliter colistin, 269 mcg/mL metronidazole, 156 mcg/mL ciprofloxacin, 100 mcg/mL ampicillin, and 56 mcg/mL vancomycin. The antibiotic cocktail and drinking water was replaced every 2 to 3 days. Five days prior to infection the antibiotic water was removed and normal drinking water was provided to the animals. Three days prior to infection the animals received a single dose of clindamycin 10 mg per kilogram via oral administration in a volume of 10 mL per kilogram.
On study Day 0 mice were inoculated with the bacterial suspension of 5×10^5 CFU Clostridioides difficile ATCC 43255 via oral gavage. Eight hours after inoculation administration of vehicle, antibiotic control, and test article was initiated according to the following. The vehicle a.k.a. infection control group of 10 mice received 80 μL per hour 100% pure nitrogen gas via duodenal catheter. The infection control group of 10 mice received 50 mg/kg vancomycin via oral gavage once daily. […] Administration was continued from study day 0 to study day 4, a total of 5 days. The mice were followed for 14 days after inoculum recording daily weights and clinical observations. Animals that appeared severely moribund were euthanized. At the end of the study all animals were humanely euthanized.

## O=O [EAT, oxygen]
[1]
  adverse effects of bolus injection: No adverse effects
[2]; efficacy experiments, infusion 3.2 mL/kg/hr, 76.8 mL/kg/day via duodenal catheter
  adverse effects due to gas infusion: no adverse effects
[2]; mouse CDI model
  onset of action: slower onset of action
  cure rate: 100%
  clinical severity and recovery: mildly ill compared to the infection control group, recover rapidly
  survival: 100%
[2]; mouse CDI model, days 8-14, after treatment was complete
  animals showing signs of infection in the 2nd week after inoculation and treatment (recurrence): no recurrent infections
[2]; mouse CDI model, listed as Enteric aerobization therapy
  clinical severity and recovery: reduces the severity of disease, accelerates recovery

## CN[C@H](CC(C)C)C(=O)N[C@H]1C(=O)N[C@@H](CC(N)=O)C(=O)N[C@H]2C(=O)N[C@H]3C(=O)N[C@H](C(=O)N[C@H](C(=O)O)c4cc(O)cc(O)c4-c4cc3ccc4O)[C@H](O)c3ccc(c(Cl)c3)Oc3cc2cc(c3O[C@@H]2O[C@H](CO)[C@@H](O)[C@H](O)[C@H]2O[C@H]2C[C@](C)(N)[C@H](O)[C@H](C)O2)Oc2ccc(cc2Cl)[C@H]1O [vancomycin, reference compound]
[2]; mouse CDI model
  onset of action: more rapid onset of action
  cure rate: 30%
  survival: 100%
